In patent US20220389003A1, “4-SUBSTITUTED INDOLE AND INDAZOLE SULFONAMIDO DERIVATIVES AS PARG INHIBITORS” (IDEAYA BIOSCIENCES, INC., priority 2019, published 2022):
pIC50: −log10 of the molar value. Where two headings read alike, the source gives them in different places.

Assays:
[1] = test system: HCC1806-XRCC1 KD (knock down) cells; experiment: Cellular viability assay (Cell Titer-Glo); assay type: cell-based; conditions: HCC1806-shXRCC1 cells, 4 days of incubation, read-out: PARGi cell viability
Procedure: HCC1806-XRCC1 KD (knock down) cells were plated at 2000 cells/well in 96-well white plates with clear flat bottom. After 24 hours, the compounds of the disclosure were added starting at 30 μM for a 9-point dose response curve at 1:3 dilution. The compounds of the disclosure were added by Tecan digital dispenser excluding the outermost wells of the plate. All treatments were done in duplicates. After 4 days of incubation, 50 ul of Cell Titer-Glo (Promega) was added per well. After incubation with the reagent for 15 minutes, luminescence was read using a plate reader (TECAN). Average values of DMSO treated wells in a plate was calculated. All data points were normalized to that of the average DMSO value. The % of control for each sample compared to DMSO treated control samples. Curves are fit as % of control vs. log [compound concentration] using a 4 parameter inhibition model (Levenberg-Marquardt algorithm):
Fit=(A+((B−A)/(1+((C/x)^D))))

PARG [2] = target: T1, PARG (Homo sapiens, UniProt Q86W56); experiment: Inhibition of PARG enzymatic assay (TR-FRET enzymatic IC50 assay); assay type: biochemical; set-up: purchased Peak Proteins; conditions: hPARG 250 pM, biotinylated-PARylated PARP substrate 30 nM
T1 sequence (Q86W56 whole entry): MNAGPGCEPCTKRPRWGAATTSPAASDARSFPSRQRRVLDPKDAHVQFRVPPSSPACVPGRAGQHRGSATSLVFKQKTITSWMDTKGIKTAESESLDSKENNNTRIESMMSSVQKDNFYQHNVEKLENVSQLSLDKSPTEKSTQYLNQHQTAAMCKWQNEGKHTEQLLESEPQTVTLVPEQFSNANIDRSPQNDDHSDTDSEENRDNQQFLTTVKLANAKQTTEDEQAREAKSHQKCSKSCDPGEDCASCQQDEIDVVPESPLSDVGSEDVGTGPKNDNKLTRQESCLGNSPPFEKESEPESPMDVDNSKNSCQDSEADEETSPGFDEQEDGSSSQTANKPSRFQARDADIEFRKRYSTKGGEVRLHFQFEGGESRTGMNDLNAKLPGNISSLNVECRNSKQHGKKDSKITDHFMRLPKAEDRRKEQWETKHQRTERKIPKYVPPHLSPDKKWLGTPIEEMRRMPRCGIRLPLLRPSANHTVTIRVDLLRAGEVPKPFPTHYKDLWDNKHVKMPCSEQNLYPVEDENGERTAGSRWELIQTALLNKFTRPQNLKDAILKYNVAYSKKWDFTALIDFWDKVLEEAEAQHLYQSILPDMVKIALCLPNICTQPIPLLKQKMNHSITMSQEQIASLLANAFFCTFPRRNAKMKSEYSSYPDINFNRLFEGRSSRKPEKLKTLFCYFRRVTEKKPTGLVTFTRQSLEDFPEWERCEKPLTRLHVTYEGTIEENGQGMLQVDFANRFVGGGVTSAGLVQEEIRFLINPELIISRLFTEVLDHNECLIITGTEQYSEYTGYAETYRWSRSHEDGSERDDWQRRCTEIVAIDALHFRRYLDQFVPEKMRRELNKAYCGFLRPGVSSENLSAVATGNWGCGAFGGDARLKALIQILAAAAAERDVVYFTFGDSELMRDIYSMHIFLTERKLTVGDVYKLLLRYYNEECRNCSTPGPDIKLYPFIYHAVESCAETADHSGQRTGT
Procedure: PARG enzyme was incubated with compound or vehicle (DMSO) and the biotinylated-PARylated PARP substrate in a microtiter plate. After adding detection antibody and streptavidin-europium, and then incubating, the plate was read for fluorescence intensity. The low control (DMSO) with low fluorescence intensity represents no inhibition of enzymatic reaction while the high control (no enzyme) with high fluorescence intensity represents full inhibition of enzymatic reaction.
• PARG • hPARG: 250 pM, His-tagged, Peak Proteins, 0.96 mg/mL (8.58 μM) • Substrate: 30 nM • Reaction time: 70 minutes • Substrate: hPARP1, His- and TEV-tagged, Peak Proteins, 14 μM • Detection Antibody: anti-His monoclonal antibody-ULight, Perkin Elmer catalog #TRF0105-M • Streptavidin-Europium: Perkin Elmer catalog #AD0062 • Assay buffer: 50 mM Tris-HCl pH 7.4, 50 mM KCl, 3 mM EDTA, 0.4 mM EGTA, 1 mM DTT, 0.01% Tween 20, 0.01% BSA • Temperature: 23° C. • Total volume: 20 μL
• 0% inhibition control: DMSO • 100% inhibition control: No enzyme
• 1. Transfer 5 μL of 3× final concentration of test compounds or DMSO to the appropriate wells of a microtiter plate. • 2. Centrifuge the plate at 1000 rpm for 1 minute. • 3. Transfer 5 μL of 3× final concentration of enzyme in assay buffer or assay buffer alone to the appropriate wells. • 4. Centrifuge the plate at 1000 rpm for 1 minute. • 5. Incubate the plate at room temperature for 1 hour. • 6. Transfer 5 μL of 3× substrate in assay buffer to all the test wells. • 7. Centrifuge the plate at 1000 rpm for 1 minute. • 8. Incubate the plate at room temperature for 10 minutes. • 9. Transfer 5 μL of 3× mixture of detection antibody and streptavidin-europium in assay buffer to all the test wells. • 10. Centrifuge the plate at 1000 rpm for 1 minute. • 11. Incubate the plate at room temperature for 1 hour. • 12. Read the plate on a plate reader (e.g., Infinite M1000).

PARG [3] = target: T1, PARG; experiment: Inhibition of PARG cellular assay (PAR foci in HeLa cells after MMS); assay type: cell-based; set-up: endogenous in cells; host or cells: HeLa; conditions: compound 1 h then MMS 1 h
Procedure: The ability of the compounds disclosed herein to inhibit PARG was determined as described below. Briefly, after treating HeLa cells with the compounds of the disclosure for 1 h, followed by treatment with DNA alkylating agent methylmethanesulfonate (MMS) for an additional 1 h, the cells were fixed in 3.7% formaldehyde. The cells were permeabilized in 0.5% Triton-X100, blocked in 5% goat serum, and incubated with mouse monoclonal antibody against poly (ADP) ribose (PAR) polymer overnight at 4° C. The cells were washed and incubated with an Alexafluor 488-linked secondary antibody together with a nuclear stain (Hoechst 33342) for an hour at room temperature. After washing, images of the cells were captured and analyzed on a high content imaging microscope and software. Two measurement of PAR chain were quantified with the mean intensity over background of the nuclear foci (fluorescent signal at 488 nm range 0.3-2.0 μm foci) quantified as PAR foci (PAR Foci IC50). The cells with a PAR foci signal >1.3 was considered as positive (PAR % positive IC50), and the percentage positive cells are quantified.

Compound	pIC50 ([1]; 96 h)	pIC50 (PARG [2])	pIC50 [1]	pIC50 (PARG [3])
CN(C)C(=O)c1ccc(-c2cc(S(=O)(=O)NC3(C#N)CC3)cc3c2cnn3-c2nnc(C(F)F)s2)cc1 [Example 3, [4-(1-[5-(difluoromethyl)(1,3,4-thiadiazol-2-yl)]-6-{[(cyanocyclopropyl)amino]sulfonyl}(1H-indazol-4-yl))phenyl]-N,N-dimethylcarboxamide]	4.70 to 5.00	6.52 to 7.00	–	–
CN(C)C(=O)c1cccc(-c2cc(S(=O)(=O)NC3(C#N)CC3)cc3c2cnn3-c2nnc(C(F)F)s2)c1 [Example 4, [3-(1-[5-(difluoromethyl)(1,3,4-thiadiazol-2-yl)]-6-{[(cyanocyclopropyl)amino]sulfonyl}(1H-indazol-4-yl))phenyl]-N,N-dimethylcarboxamide]	4.52 to 4.70	6.00 to 6.52	–	–
N#CC1(NS(=O)(=O)c2cc(N3CC[C@H]4COC[C@H]4C3)c3cnn(-c4nnc(C(F)F)s4)c3c2)CC1 (relative stereo) [Example 56, 1-[({1-[5-(difluoromethyl)(1,3,4-thiadiazol-2-yl)]-4-(cis-8-oxa-3-azabicyclo-[4.3.0]non-3-yl)-1H-indazol-6-yl}sulfonyl)amino]cyclopropanecarbonitrile]	4.70 to 5.00	6.00 to 6.52	–	–
CN(C)C(=O)C1CCN(c2cc(S(=O)(=O)NC3(C#N)CC3)cc3c2cnn3-c2nnc(C(F)F)s2)C1 (stereo not drawn) [Example 54, [1-(1-[5-(difluoromethyl)(1,3,4-thiadiazol-2-yl)]-6-{[(cyanocyclopropyl)amino]sulfonyl}(1H-indazol-4-yl))pyrrolidin-3-yl]-N,N-dimethylcarboxamide]	4.70 to 5.00	6.52 to 7.00	–	–
N#CC1(NS(=O)(=O)c2cc(-c3ccc4cn[nH]c4c3)c3cnn(-c4nnc(C(F)F)s4)c3c2)CC1 [Example 2, 1-[({4-(1H-indazol-6-yl)-1-[5-(difluoromethyl)(1,3,4-thiadiazol-2-yl)]-1H-indazol-6-yl}sulfonyl)amino]cyclopropanecarbonitrile]	4.52 to 4.70	5.00 to 6.00	–	–
N#CC1(NS(=O)(=O)c2cc(N3CCC4(COC4)C3)c3cnn(-c4nnc(C(F)F)s4)c3c2)CC1 [Example 34, 1-[({1-[5-(difluoromethyl)(1,3,4-thiadiazol-2-yl)]-4-(2-oxa-6-azaspiro[3.4]oct-6-yl)-1H-indazol-6-yl}sulfonyl)amino]cyclopropanecarbonitrile]	4.52 to 4.70	6.00 to 6.52	–	–
Cn1cnnc1N1CCN(c2cc(S(=O)(=O)NC3(C#N)CC3)cc3c2cnn3-c2nnc(C(F)F)s2)CC1 [Example 36, 1-[({1-[5-(difluoromethyl)(1,3,4-thiadiazol-2-yl)]-4-[4-(4-methyl(1,2,4-triazol-3-yl))piperazinyl]-1H-indazol-6-yl}sulfonyl)amino]cyclopropanecarbonitrile]	4.70 to 5.00	≥ 7.00	–	–
[4-(1-[5-(difluoromethyl)(1,3,4-thiadiazol-2-yl)]-6-{[(cyanocyclopropyl)amino]sulfonyl}(1H-indazol-4-yl))(1,4-diazaperhydroepinyl)]-N-methylcarboxamide [Example 31]	–	6.00 to 6.52	4.70 to 5.00	–
CNC(=O)C1CCN(c2cc(S(=O)(=O)NC3(C#N)CC3)cc3c2cnn3-c2nnc(C(F)F)s2)C1 (stereo not drawn) [Example 53, [1-(1-[5-(difluoromethyl)(1,3,4-thiadiazol-2-yl)]-6-{[(cyanocyclopropyl)amino]sulfonyl}(1H-indazol-4-yl))pyrrolidin-3-yl]-N-methylcarboxamide]	4.70 to 5.00	6.52 to 7.00	–	–
N#CC1(NS(=O)(=O)c2cc(N3CCC4(CCOCC4)CC3)c3cnn(-c4nnc(C(F)F)s4)c3c2)CC1 [Example 30, 1-[({1-[5-(difluoromethyl)(1,3,4-thiadiazol-2-yl)]-4-(9-oxa-3-azaspiro[5.5]undec-3-yl)-1H-indazol-6-yl}sulfonyl)amino]cyclopropanecarbonitrile]	–	6.00 to 6.52	–	5.00 to 6.00

Further lines, results first:

pIC50 ([1]; 96 h)	pIC50 (PARG [2])	pIC50 [1]	pIC50 (PARG [3])	Compound
5.00 to 6.00	≥ 7.00	–	–	CNC(=O)N1CCN(c2cc(S(=O)(=O)NC3(C#N)CC3)cc3c2cnn3-c2nnc(C(F)F)s2)CC1 [Example 74, 4-(6-(N-(1-cyanocyclopropyl)sulfamoyl)-1-(5-(difluoromethyl)-1,3,4-thiadiazol-2-yl)-1H-indazol-4-yl)-N-methylpiperazine-1-carboxamide]
5.00 to 6.00	≥ 7.00	–	–	COC(=O)N1CCN(c2cc(S(=O)(=O)NC3(C#N)CC3)cc3c2cnn3-c2nnc(C(F)F)s2)CC1 [Example 58, methyl 4-(1-[5-(difluoromethyl)(1,3,4-thiadiazol-2-yl)]-6-{[(cyanocyclopropyl)amino]sulfonyl}-1H-indazol-4-yl)piperazinecarboxylate]
5.00 to 6.00	≥ 7.00	–	–	N#CC1(NS(=O)(=O)c2cc(N3CCN4C(=O)OC[C@H]4C3)c3cnn(-c4nnc(C(F)F)s4)c3c2)CC1 [Example 61, 1-[({4-((1R)-7-oxo-8-oxa-3,6-diazabicyclo[4.3.0]non-3-yl)-1-[5-(difluoromethyl) (1,3,4-thiadiazol-2-yl)]-1H-indazol-6-yl}sulfonyl)amino]cyclopropanecarbonitrile]
4.70 to 5.00	6.00 to 6.52	–	–	CN1CC2(CCN(c3cc(S(=O)(=O)NC4(C#N)CC4)cc4c3cnn4-c3nnc(C(F)F)s3)CC2)C1 [Example 92, 1-[({1-[5-(difluoromethyl)(1,3,4-thiadiazol-2-yl)]-4-(2-methyl-2,7-diazaspiro-[3.5]non-7-yl)-1H-indazol-6-yl}sulfonyl)amino]cyclopropanecarbonitrile]
4.70 to 5.00	≥ 7.00	–	–	CN1CCCN(c2cc(S(=O)(=O)NC3(C#N)CC3)cc3c2cnn3-c2nnc(C(F)F)s2)CC1 [Example 63, 1-[({1-[5-(difluoromethyl)(1,3,4-thiadiazol-2-yl)]-4-(4-methyl(1,4-diazaperhydroepinyl))-1H-indazol-6-yl}sulfonyl)amino]cyclopropanecarbonitrile]
4.52 to 4.70	5.00 to 6.00	–	–	N#CC1(NS(=O)(=O)c2cc(N3CCC(C(F)F)CC3)c3cnn(-c4nnc(C(F)F)s4)c3c2)CC1 [Example 64, 1-[({1-[5-(difluoromethyl)(1,3,4-thiadiazol-2-yl)]-4-[4-(difluoromethyl)piperidyl]-1H-indazol-6-yl}sulfonyl)amino]cyclopropanecarbonitrile]
5.00 to 6.00	≥ 7.00	–	–	CN(C)CCN(C)C(=O)N1CCN(c2cc(S(=O)(=O)NC3(C#N)CC3)cc3c2cnn3-c2nnc(C(F)F)s2)CC1 [Example 76, [4-(1-[5-(difluoromethyl)(1,3,4-thiadiazol-2-yl)]-6-{[(cyanocyclopropyl)amino]sulfonyl}(1H-indazol-4-yl))piperazinyl]-N-[2-(dimethylamino)ethyl]-N-methylcarboxamide]
4.52 to 4.70	6.00 to 6.52	–	–	CNC(=O)C1CN(c2cc(S(=O)(=O)NC3(C#N)CC3)cc3c2cnn3-c2nnc(C(F)F)s2)C1 [Example 75, 1-(6-(N-(1-cyanocyclopropyl)sulfamoyl)-1-(5-(difluoromethyl)-1,3,4-thiadiazol-2-yl)-1H-indazol-4-yl)-N-methylazetidine-3-carboxamide]
